Counter-ions that a name gives are not always drawn.
Molecular target: T1, human Mnk2a (Homo sapiens, UniProt Q9HBH9)
T1 construct: made in house; host or cells: E. coli BL21 (vector pGEX-4T1)
Assay: Mnk2a in vitro kinase assay (indirect fluorescence polarization)
Assay type: biochemical
Settings: GST-Mnk2a pre-activated with ERK2, 20 μM ATP, 30 μM substrate peptide; read-out: MNK2 IC50
How it was run: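 Indirect competitive fluorescence polarization: kinase-generated phospho-product displaces a fluorophore-labelled phospho-peptide from a phospho-specific antibody. Enzyme is N-terminal GST-Mnk2a from E. coli, activated with pre-activated ERK2 and 50 μM ATP; substrate is an amidated 12-mer peptide around eIF4E Ser209.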

T1 sequence (Q9HBH9 whole entry): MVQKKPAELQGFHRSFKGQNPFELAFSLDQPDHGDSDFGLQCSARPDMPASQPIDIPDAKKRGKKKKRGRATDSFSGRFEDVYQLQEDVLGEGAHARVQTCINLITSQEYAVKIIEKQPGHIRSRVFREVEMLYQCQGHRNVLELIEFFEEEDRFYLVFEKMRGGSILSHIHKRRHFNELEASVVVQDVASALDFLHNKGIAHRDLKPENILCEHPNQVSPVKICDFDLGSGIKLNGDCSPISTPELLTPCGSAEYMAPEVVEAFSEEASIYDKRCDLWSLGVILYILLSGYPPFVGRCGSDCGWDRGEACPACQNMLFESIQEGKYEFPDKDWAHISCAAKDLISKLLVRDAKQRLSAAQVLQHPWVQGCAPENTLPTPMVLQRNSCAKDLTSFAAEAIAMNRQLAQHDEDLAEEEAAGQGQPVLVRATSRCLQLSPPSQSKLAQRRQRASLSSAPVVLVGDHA

| IC50 [nM] | Structure (SMILES) |
| --- | --- |
| 61 | Cc1c(C(=O)NC(C)C)sc2ncnc(Nc3ccc(F)cc3O[C@H]3CCCNC3)c12 [Example 12] |
| 42 | Cc1c(C(=O)N[C@H]2CCC[C@@H]2O)sc2ncnc(Nc3ccc(F)cc3OC3CCOCC3)c12 [Example 254] |
| 47 | Cc1c(C(=O)NCC2CC2)sc2ncnc(Nc3ccc(F)cc3OC3CCCNC3)c12 (stereo not drawn) [Example 19] |
| 36 | Cc1c(C(=O)N[C@H]2CCN(C(=O)OC(C)(C)C)C[C@@H]2O)sc2ncnc(Nc3ccc(F)cc3OC3CCOCC3)c12 [Example 241] |
| 25 | Cc1c(C(=O)NCCCN2CC(F)(F)C2)sc2ncnc(Nc3ccc(F)cc3OC3CCOCC3)c12 [Example 125] |
| 9 | Cc1c(C(N)=O)sc2ncnc(Nc3ccc(F)cc3O[C@H]3CCOC3)c12 [Example 109] |
| 90 | CSCCNC(=O)c1sc2ncnc(Nc3ccc(F)cc3OC3CCOCC3)c2c1C [Example 234] |
| 1100 | CC(=O)N1CC[C@H](Oc2cc(F)ccc2Nc2ncnc3sc(C(N)=O)c(C)c23)C1 [Example 96, 4-[2-((S)-1-Acetyl-pyrrolidin-3-yloxy)-4-fluoro-phenylamino]-5-methyl-thieno[2,3-d]pyrimidine-6-carboxylic acid amide] |
| 67 | Cc1c(C(=O)NC2CCN(C)C2)sc2ncnc(Nc3ccc(F)cc3OC3CCOCC3)c12 (stereo not drawn) [Example 177] |
| 34 | Cc1c(C(=O)NCCCN2CCC(O)CC2)sc2ncnc(Nc3ccc(F)cc3OC3CCOCC3)c12 [Example 253] |
| 2 | Cc1c(C(N)=O)sc2ncnc(Nc3ccc(F)cc3O[C@@H]3CCCN(S(C)(=O)=O)C3)c12 [Example 84, 4-[4-Fluoro-2-((R)-1-methanesulfonyl-piperidin-3-yloxy)-phenylamino]-5-methyl-thieno[2,3-d]pyrimidine-6-carboxylic acid amide] |
| 20 | Cc1c(C(N)=O)sc2ncnc(Nc3ccc(F)cc3O[C@@H]3CCCN(CCO)C3)c12 [Example 80] |
| 32 | Cc1c(C(=O)NCC[S+](C)[O-])sc2ncnc(Nc3ccc(F)cc3OC3CCOCC3)c12 (stereo not drawn) [Example 238] |
| 12 | Cc1c(C(N)=O)sc2ncnc(Nc3ccc(F)cc3O[C@@H]3CCOC3)c12 [Example 104] |
| 7 | Cc1c(C(=O)NCCCN(C)C)sc2ncnc(Nc3ccc(F)cc3O[C@@H]3CCCN(S(C)(=O)=O)C3)c12 [Example 85] |
| 33 | COC[C@H]1CCCN1CCCNC(=O)c1sc2ncnc(Nc3ccc(F)cc3OC3CCOCC3)c2c1C [Example 121] |
| 75 | Cc1c(C(=O)NCC(C)(C)Cl)sc2ncnc(Nc3ccc(F)cc3OC3CCCNC3)c12 (stereo not drawn) [Example 48] |
| 42 | Cc1c(C(=O)NC2CCCC(O)C2)sc2ncnc(Nc3ccc(F)cc3OC3CCOCC3)c12 (stereo not drawn) [Example 192] |
| 53 | Cc1c(C(=O)NCCCN2CCCC2)sc2ncnc(Nc3cccnc3O[C@@H]3CCCOC3)c12 [Example 262] |
| 300 | COCC(=O)N1CCC(Oc2cc(F)ccc2Nc2ncnc3sc(C(N)=O)c(C)c23)C1 (stereo not drawn) [Example 94, 4-{4-Fluoro-2-[1-(2-methoxy-acetyl)-pyrrolidin-3-yloxy]-phenylamino}-5-methyl-thieno[2,3-d]pyrimidine-6-carboxylic acid amide] |
| 29 | Cc1c(C(=O)NCc2cocn2)sc2ncnc(Nc3ccc(F)cc3OC3CCOCC3)c12 [Example 198] |

| IC50 [nM] | Structure (SMILES) |
| --- | --- |
| 35 | Cc1c(C(=O)NCc2ccc(O)cc2)sc2ncnc(Nc3ccc(F)cc3OC3CCCNC3)c12 (stereo not drawn) [Example 34] |
| 41 | CONC(=O)c1sc2ncnc(Nc3ccc(F)cc3OC3CCOCC3)c2c1C [Example 239] |
| 48 | Cc1c(C(=O)NCc2ncco2)sc2ncnc(Nc3ccc(F)cc3OC3CCCNC3)c12 (stereo not drawn) [Example 23] |
| 51 | Cc1c(C(=O)NCC2(O)CCCC2)sc2ncnc(Nc3ccc(F)cc3OC3CCOCC3)c12 [Example 203] |
| 490 | COCCN1CCC[C@H](Oc2cc(F)ccc2Nc2ncnc3sc(C(N)=O)c(C)c23)C1 [Example 1, 4-{4-Fluoro-2-[(S)-1-(2-methoxy-ethyl)-piperidin-3-yloxy]-phenylamino}-5-methyl-thieno[2,3-d]pyrimidine-6-carboxylic acid amide] |
| 35 | Cc1c(C(=O)NCC2CCCCC2O)sc2ncnc(Nc3ccc(F)cc3OC3CCCNC3)c12 (stereo not drawn) [Example 40] |
| 57 | Cc1c(C(=O)NCCn2ccnc2)sc2ncnc(Nc3ccc(F)cc3OC3CCOCC3)c12 [Example 151] |
| 54 | Cc1c(C(=O)NCC(C)(C)CO)sc2ncnc(Nc3ccc(F)cc3OC3CCOCC3)c12 [Example 216] |
| 34 | Cc1c(C(=O)NCc2cccs2)sc2ncnc(Nc3ccc(F)cc3OC3CCCNC3)c12 (stereo not drawn) [Example 30] |
| 43 | Cc1c(C(=O)NC(C)C)sc2ncnc(Nc3ccc(F)cc3OC3CCOCC3)c12 [Example 135] |
| 48 | Cc1c(C(=O)NCc2ccc(Cl)c(F)c2)sc2ncnc(Nc3ccc(F)cc3OC3CCCNC3)c12 (stereo not drawn) [Example 59] |
| 12 | Cc1c(C(=O)NS(C)(=O)=O)sc2ncnc(Nc3ccc(F)cc3OC3CCOCC3)c12 [Example 235] |
| 26 | Cc1c(C(=O)NCCCN(C)C)sc2ncnc(Nc3ccc(F)cc3O[C@H]3CCOC3)c12 [Example 108, 4-{4-Fluoro-2-[(S)-(tetrahydro-furan-3-yl)oxy]-phenylamino}-5-methyl-thieno[2,3-d]pyrimidine-6-carboxylic acid (3-dimethylamino-propyl)-amide] |
| 40 | Cc1c(C(=O)NCc2nccn2C)sc2ncnc(Nc3ccc(F)cc3O[C@H]3CCCNC3)c12 [Example 14] |
| 42 | Cc1c(C(=O)NCCCn2ccnc2)sc2ncnc(Nc3ccc(F)cc3OC3CCOCC3)c12 [Example 220] |
| 15 | Cc1c(C(=O)NCCc2ccc(O)cc2)sc2ncnc(Nc3ccc(F)cc3OC3CCCNC3)c12 (stereo not drawn) [Example 46] |
| 12 | Cc1c(C(=O)NCCCN(C)C)sc2ncnc(Nc3ccc(F)cc3O[C@H]3CCCOC3)c12 [Example 87, 4-{4-Fluoro-2-[(S)-(tetrahydro-pyran-3-yl)oxy]-phenylamino}-5-methyl-thieno[2,3-d]pyrimidine-6-carboxylic acid (3-dimethylamino-propyl)-amide] |
| 56 | Cc1c(C(=O)NCCNc2ccccc2)sc2ncnc(Nc3ccc(F)cc3OC3CCCNC3)c12 (stereo not drawn) [Example 43] |
| 160 | Cc1c(C(=O)NC[C@@H]2CCC(=O)N2)sc2ncnc(Nc3ccc(F)cc3OC3CCCNC3)c12 (stereo partly drawn) [Example 51] |
| 22 | Cc1c(C(=O)N[C@@H]2CCC[C@H]2O)sc2ncnc(Nc3ccc(F)cc3OC3CCOCC3)c12 [Example 255] |
| 115 | Cc1c(C(=O)NC2CCN(C)CC2)sc2ncnc(Nc3cccnc3O[C@@H]3CCCOC3)c12 [Example 263] |

| IC50 [nM] | Structure (SMILES) |
| --- | --- |
| 26 | Cc1c(C(=O)NCCC2CCCN2C)sc2ncnc(Nc3ccc(F)cc3OC3CCOCC3)c12 (stereo not drawn) [Example 119] |
| 26 | Cc1c(C(=O)NCc2ccco2)sc2ncnc(Nc3ccc(F)cc3OC3CCCNC3)c12 (stereo not drawn) [Example 22] |
| 80 | Cc1c(C(N)=O)sc2ncnc(Nc3ccc(F)cc3O[C@H]3CCCN(C)C3)c12 [Example 8] |
| 470 | Cc1c(C(N)=O)sc2ncnc(Nc3ccc(F)cc3O[C@H]3CCCN(CC(=O)N(C)C)C3)c12 [Example 2] |
| 40 | Cc1c(C(=O)NCCCO)sc2ncnc(Nc3ccc(F)cc3OC3CCOCC3)c12 [Example 152] |
| 47 | Cc1c(C(=O)N[C@H]2CC[C@@H](O)CC2)sc2ncnc(Nc3ccc(F)cc3OC3CCOCC3)c12 [Example 191] |
| 62 | Cc1c(C(=O)NCC2CCOC2)sc2ncnc(Nc3ccc(F)cc3OC3CCCNC3)c12 (stereo not drawn) [Example 24] |
| 59 | Cc1c(C(=O)NCCc2ccncc2)sc2ncnc(Nc3ccc(F)cc3OC3CCOCC3)c12 [Example 208] |
| 18 | Cc1c(C(=O)NCc2ncc[nH]2)sc2ncnc(Nc3ccc(F)cc3OC3CCOCC3)c12 [Example 231] |
| 110 | Cc1c(C(N)=O)sc2ncnc(Nc3ccc(F)cc3O[C@H]3CCCN(CC(F)(F)F)C3)c12 [Example 5] |
| 21 | Cc1c(C(=O)NCCCN2CC[C@@H](O)C2)sc2ncnc(Nc3ccc(F)cc3OC3CCOCC3)c12 [Example 249] |
| 19 | Cc1c(C(N)=O)sc2ncnc(Nc3cccnc3O[C@H]3CCCNC3)c12 [Example 69, 5-Methyl-4-[2-((S)-piperidin-3-yloxy)-pyridin-3-ylamino]thieno[2,3-d]pyrimidine-6-carboxylic acid amide] |
| 89 | Cc1c(C(N)=O)sc2ncnc(Nc3ccc(F)cc3O[C@@H]3CCCNC3)c12 [Example 71, 4-[4-Fluoro-2-((R)-piperidin-3-yloxy)-phenylamino]-5-methyl-thieno[2,3-d]pyrimidine-6-carboxylic acid amide] |
| 48 | Cc1c(C(=O)NCc2ccccc2)sc2ncnc(Nc3ccc(F)cc3OC3CCCNC3)c12 (stereo not drawn) [Example 27] |
| 63 | CCC(CO)NC(=O)c1sc2ncnc(Nc3ccc(F)cc3OC3CCOCC3)c2c1C (stereo not drawn) [Example 224] |
| 50 | Cc1c(C(=O)NC(C)CO)sc2ncnc(Nc3ccc(F)cc3OC3CCOCC3)c12 (stereo not drawn) [Example 156] |
| 38 | Cc1c(C(=O)NCC2CCCN(C)C2)sc2ncnc(Nc3ccc(F)cc3OC3CCOCC3)c12 (stereo not drawn) [Example 123] |
| 64 | Cc1c(C(=O)NCCOc2ccccc2)sc2ncnc(Nc3ccc(F)cc3OC3CCCNC3)c12 (stereo not drawn) [Example 44] |
| 59 | Cc1c(C(=O)NC2CCCNCC2)sc2ncnc(Nc3ccc(F)cc3OC3CCOC3)c12 (stereo in doubt) [Compound 277, 4-{4-Fluoro-2-[(R)-(tetrahydro-furan-3-yl)oxy]-phenylamino}-5-methyl-thieno[2,3-d]pyrimidine-6-carboxylic acid azepan-4-ylamide trifluoroacetate] |
| 22 | Cc1c(C(=O)NCCCN2CCN(C)CC2)sc2ncnc(Nc3ccc(F)cc3OC3CCOCC3)c12 [Example 120] |
| 47 | CCNC(=O)c1sc2ncnc(Nc3ccc(F)cc3OC3CCOCC3)c2c1C [Example 227] |

Source: US8648068B2, “Heterocycloalkyl-containing thienopyrimidines for pharmaceutical compositions” (Boehringer Ingelheim International GmbH, priority 2010, dated 2014)
